Experiments:
[1] = in vivo; cited from earlier work
[2] = test system: carrageenan paw inflammation; test: mouse carrageenan paw inflammation (paw edema) model; format: in vivo; conditions: 3 hours; p.o. gavage; curcumin 30 mg/kg, CDC 30 mg/kg, indomethacin 5 mg/kg; male CD-1 mice

Compound	Tmax [1] [min]	swelling (edema: left paw thickness minus right paw thickness) [2] [mm]
COc1cc(/C=C/C(=O)CC(=O)/C=C/c2ccc(O)c(OC)c2)ccc1O [curcumin, Curcumin]	3 to 5	0.66
COc1ccc2c(c1)c(CC(=O)O)c(C)n2C(=O)c1ccc(Cl)cc1 [indomethacin, Indomethacin]		0.73

Reference: patent US20100179103A1 (priority 2008, published 2010)
